Measurements taken from patent US7259172B2, “Inhibitors of β-lactamase” (priority 1999, dated 2007).
Where a name gives a salt, the structure may show the parent alone. Read-outs that look alike come from different tables or passages of the source.

Assays:
[1] = molecular target: P99 β-lactamase (class C) (Enterobacter cloacae, UniProt P05364); test: biochemical
Description: Enzyme activity against the commercially available substrate, nitrocefin, was measured in the presence of various inhibitor concentrations. The P99 β-lactamase enzyme (1 mg/mL) was dissolved in 20 mM MOPS buffer at pH 7.50, and diluted 200-fold in the same buffer containing 0.1% BSA. Nitrocefin was stored as a 100 μM stock solution in 20 mM MOPS at pH 7.5. Stock solutions of test compounds were prepared in 10 mM MOPS at pH 7.5 (approximately 1 mg/mL)
The reaction at 25° C. was followed spectrophotometrically at 482 nm. IC50 values were determined from the dose-response plots of the initial rates vs. inhibitor concentration

[2] = tested on: Enterobacter cloacae [ATCC #23355]; format: cell-based; settings: ratio antibiotic MIC without/with inhibitor
Excerpt: An increasing number of organisms produce enzymes that inhibit the actions of β-lactam antibiotics, so-called β-lactamases. […] The Minimum Inhibitory Concentration (MIC) test determines the lowest concentration of an antibiotic at which no visible bacterial growth occurs. This test permits comparisons to be made between bacterial growth in the presence of antibiotic alone (control) and bacterial growth in the presence of both an antibiotic and a novel (test) compound.
(§1) Frozen bacterial stocks were thawed to room temperature, and a few drops were placed on an appropriate plate; chocolate agar was used for H. influenzae, blood agar was used for all others. The plates were incubated overnight at 37° C. in air, except for H. influenzae, which was incubated in a CO2 incubator. The cultures were subcultured the following day, and the subcultures were again incubated overnight
A sterile loop was touched to 3 colonies and used to inoculate 1 mL of Mueller-Hinton Broth (MHB). […] 5 μL of the resultant inoculum solution contained ˜4×10^4 CFU/mL. Confirmation of the inoculum was performed by preparing a serial dilution to give 100 μL of a 5000-fold dilution, all of which was then plated onto an appropriate plate.
(§2) Each plate included 2 wells with no bacterial inoculum (negative control) and 2 wells with no test compound and no antibiotic (positive control). The plate was covered and incubated with gentle shaking for 16-20 hours at 37° C. in air (CO2 for H. influenzae). Absorbance was read at 540 nm (Multiskan Titertek mcc/340). Bacterial growth was scored as follows:
(§3) In some cases, the determination of MIC in the presence of test compound was performed at more than one concentration of the test compound.
The impact of the novel β-lactamase inhibitors is expressed as the ratio of the MIC determined in the absence of β-lactamase inhibitor to the MIC determined in the presence of the specified concentration of the β-lactamase inhibitor test compound.

[3] = tested on: Staphylococcus aureus [MGH:MA #50848]; test: Antibiotic MIC in presence and absence of β-lactamase inhibitor (synergy); format: cell-based; settings: ratio antibiotic MIC without/with inhibitor; inhibitor 10 μg/mL
Excerpt: (§4) An increasing number of organisms produce enzymes that inhibit the actions of β-lactam antibiotics, so-called β-lactamases. The “strength” of β-lactam antibiotics can be improved by pairing them with compounds that inhibit bacterial enzyme β-lactamases. The Minimum Inhibitory Concentration (MIC) test determines the lowest concentration of an antibiotic at which no visible bacterial growth occurs. This test permits comparisons to be made between bacterial growth in the presence of antibiotic alone (control) and bacterial growth in the presence of both an antibiotic and a novel (test) compound.
(§5) • β-lactamase positive strains • β-lactam antibiotics • β-lactamase inhibitor compounds • appropriate bacterial growth medium β-Lactamase Positive Strains • Klebsiella oxytoca [ATCC#51983] • Staphylococcus aureus [MGH: MA#50848] • Enterococcus faecalis [ATCC#49757] • Enterobacter cloacae [ATCC#23355] • Haemophilus influenzae [ATCC#43163] β-Lactam antibiotics
as §1
(§6) A sterile loop was touched to 3 colonies and used to inoculate 1 mL of Mueller-Hinton Broth (MHB). The bacterial solution was diluted 18.8-fold (20 μL of bacterial solution in […] of broth). 5 μL of the resultant inoculum solution contained ˜4×10^4 CFU/mL. Confirmation of the inoculum was performed by preparing a serial dilution to give 100 μL of a 5000-fold dilution, all of which was then plated onto an appropriate plate. After incubation overnight at 37° C., the plate had 75-150 colonies.
as §2, with “In each well of a 96-well microtiter plate was combined 5 μL of bacterial inoculum, 90 μL of antibiotic dilutions, and 5 μL of test compound (or media for determination of the MIC of the antibiotic in the absence of test compound). Each” for “Each”
as §3
(§7) The impact of the novel β-lactamase inhibitors is expressed as the ratio of the MIC determined in the absence of β-lactamase inhibitor to the MIC determined in the presence of the specified concentration of the β-lactamase inhibitor test compound. […]

[4] = tested on: Haemophilus influenzae [ATCC #43163]; test: as above; format: cell-based; settings: ratio antibiotic MIC without/with inhibitor; inhibitor 10 μg/mL
Excerpt: as §4, §5, §1, §6
as §2, with “In each well of a 96-well microtiter plate was combined 5 μL of bacterial inoculum, 90 μL of antibiotic dilutions, and 5 μL of test compound (or media for determination of the MIC of the antibiotic in the absence of test compound). Each” for “Each”
as §3, §7

[5] = tested on: Stenotrophomonas maltophilia [ATCC#12968-resistant]; test: Synergy against highly resistant β-lactamase positive strains; format: cell-based
Description: as §1, §6
as §2, with “In each well of a 96-well microtiter plate was combined 5 μL of bacterial inoculum, 90 μL of antibiotic dilutions, and 5 μL of test compound (or media for determination of the MIC of the antibiotic in the absence of test compound). Each” for “Each”
as §3, §7
(§8) Following procedures identical to those described in Example 72, β-lactamase inhibitors were tested for their ability to enhance antibiotic efficacy against β-lactamase positive bacterial strains that are very highly resistant to β-lactam antibiotics.
(§9) • Enterobacter cloacae (derepressed) • Pseudomonas aeroginosa [ATCC#12470-resistant] • Stenotrophomonas maltophilia [ATCC#12968-resistant] • Pseudomonas aeroginosa [ATCC#98043010-intermediate resistance] • Stenotrophomonas maltopilia [ATCC#98043029-intermediate resistance]

[6] = tested on: Pseudomonas aeroginosa [ATCC#98043010-intermediate resistance]; test: as above; format: cell-based
Description: as §1, §6
as §2, with “In each well of a 96-well microtiter plate was combined 5 μL of bacterial inoculum, 90 μL of antibiotic dilutions, and 5 μL of test compound (or media for determination of the MIC of the antibiotic in the absence of test compound). Each” for “Each”
as §3, §7, §8, §9

[7] = tested on: Pseudomonas aeroginosa [ATCC#12470-resistant]; test: as above; format: cell-based
Description: as §1, §6
as §2, with “In each well of a 96-well microtiter plate was combined 5 μL of bacterial inoculum, 90 μL of antibiotic dilutions, and 5 μL of test compound (or media for determination of the MIC of the antibiotic in the absence of test compound). Each” for “Each”
as §3, §7, §8, §9

[8] = tested on: Stenotrophomonas maltophilia [ATCC#98043029-intermediate resistance]; test: as above; format: cell-based
Description: as §1, §6
as §2, with “In each well of a 96-well microtiter plate was combined 5 μL of bacterial inoculum, 90 μL of antibiotic dilutions, and 5 μL of test compound (or media for determination of the MIC of the antibiotic in the absence of test compound). Each” for “Each”
as §3, §7, §8, §9

[9] = tested on: Enterobacter cloacae (derepressed); test: as above; format: cell-based; settings: derepressed strain
Description: as §1, §6
as §2, with “In each well of a 96-well microtiter plate was combined 5 μL of bacterial inoculum, 90 μL of antibiotic dilutions, and 5 μL of test compound (or media for determination of the MIC of the antibiotic in the absence of test compound). Each” for “Each”
as §3, §7, §8, §9

[10] = Table 1
[11] = Class C β-lactamase [P99], Table 1, read-out: IC50 (μM) “C”

Chain of P99 β-lactamase (class C) (P05364 21-381): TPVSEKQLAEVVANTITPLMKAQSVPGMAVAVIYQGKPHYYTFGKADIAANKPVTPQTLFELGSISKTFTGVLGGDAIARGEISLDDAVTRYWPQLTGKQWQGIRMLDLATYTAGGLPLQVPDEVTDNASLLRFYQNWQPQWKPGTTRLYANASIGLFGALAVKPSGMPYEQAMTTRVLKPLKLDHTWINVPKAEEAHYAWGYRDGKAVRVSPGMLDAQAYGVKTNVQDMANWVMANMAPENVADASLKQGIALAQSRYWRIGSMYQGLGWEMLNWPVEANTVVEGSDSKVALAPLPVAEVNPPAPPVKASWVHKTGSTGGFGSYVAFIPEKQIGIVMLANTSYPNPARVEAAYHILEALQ

Compound	IC50 [1] [µM]	Synergy Class C E. Cl ([2]; inhibitor 10 μg/mL)	Synergy Class A H. In. [4]	other results
N.O=[N+]([O-])c1ccc(OP(=O)(O)C(Cc2ccccc2)NS(=O)(=O)c2cccs2)cc1 (stereo not drawn) [Compound 44, [2-Phenyl-1-(thiophene-2-sulfonylamino)-ethyl]-phosphonic acid mono-(4-nitrophenyl) ester ammonium salt]	192	2/2	1	Synergy Class C E. Cl ([2]; inhibitor 1 μg/mL): 2/2; Synergy Class A St. A. [3]: 1
N.O=P(O)(Oc1cccnc1Cl)C(Cc1ccccc1)NS(=O)(=O)c1cccs1 (stereo not drawn) [Compound 46, [2-Phenyl-1-(thiophene-2-sulfonylamino)-ethyl]-phosphonic acid mono-(2-chloropyridin-3-yl) ester ammonium salt]	188	1/1	1	Synergy Class C E. Cl ([2]; inhibitor 1 μg/mL): 1/1; Synergy Class A St. A. [3]: 1
CN(CP(=O)(O)Oc1ccc([N+](=O)[O-])cc1)S(=O)(=O)c1cccs1.N [Compound 47, [(2-Thiophenesulfonyl-N-methylamino)methyl]-phosphonic acid mono-(4-nitrophenyl) ester ammonium salt]	276	2	1	–
CC(C)C(NS(=O)(=O)c1cccs1)P(=O)(O)Oc1ccc([N+](=O)[O-])cc1 (stereo not drawn) [Compound 52, [2-Methyl-1-thiophene-2-sulfonylamino)-propyl]-phosphonic acid mono-(4-nitrophenyl) ester ammonium salt]	1400	4	1	Synergy Class C E. Cl ([2]; inhibitor 1 μg/mL): 2; Synergy Class A St. A. [3]: 1
N.O=[N+]([O-])c1ccc(OP(=O)(O)C(NS(=O)(=O)c2cccs2)c2ccccc2)cc1 (stereo not drawn) [Compound 53, [Phenyl-(thiophene-2-sulfonylamino)-methyl]-phosphonic acid mono-(4-nitrophenyl) ester ammonium salt]	363	2/2	1	Synergy Class C E. Cl ([2]; inhibitor 1 μg/mL): 2/2; Synergy Class A St. A. [3]: 1
CC(C)C(NS(=O)(=O)c1cccs1)P(=O)(O)Oc1cccnc1Cl.N (stereo not drawn) [Compound 54, [2-Methyl-1-(thiophene-2-sulfonylamino)-propyl]-phosphonic acid mono-(2-chloropyridin-3-yl) ester ammonium salt]	1800	2	1	Synergy Class C E. Cl ([2]; inhibitor 1 μg/mL): 1; Synergy Class A St. A. [3]: 1
N.O=P(O)(Oc1cccnc1Cl)C(NS(=O)(=O)c1cccs1)c1ccccc1 (stereo not drawn) [Compound 60, [Phenyl-(thiophene-2-sulfonylamino)-methyl]-phosphonic acid mono-(2-chloropyridin-3-yl) ester ammonium salt]	603	2	1	Synergy Class C E. Cl ([2]; inhibitor 1 μg/mL): 1; Synergy Class A St. A. [3]: 1
O=[N+]([O-])c1ccc(OP(=O)(O)CNS(=O)(=O)c2cc3c(Cl)ccc(Cl)c3s2)cc1 [Compound 128, (5,8-dichlorobenzothiophene-2-sulfonyl)aminomethylphosphonic acid mono-(4-nitrophenyl) ester ammonium salt]	0.1	16	–	Synergy Resistant Stenotro. ([5]; inhibitor 1 μg/mL): 1; Synergy Resistant Stenotro. ([5]; inhibitor 10 μg/mL): 1; Synergy Intermed. Pseudo. ([6]; inhibitor 1 μg/mL): 1; Synergy Intermed. Pseudo. ([6]; inhibitor 10 μg/mL): 2; Synergy Resistant Pseudo. ([7]; inhibitor 1 μg/mL): 1; Synergy Resistant Pseudo. ([7]; inhibitor 10 μg/mL): 1; Synergy Intermed. Stenotro. ([8]; inhibitor 1 μg/mL): 1; Synergy Intermed. Stenotro. ([8]; inhibitor 10 μg/mL): 2; Synergy Resistant Ent. Cloacae ([9]; inhibitor 1 μg/mL): 1; Synergy Resistant Ent. Cloacae ([9]; inhibitor 10 μg/mL): 5; logP (physchem): 0.45
CN(CP(=O)(O)Oc1ccc([N+](=O)[O-])cc1)S(=O)(=O)c1cc2ccccc2s1.N [Compound 142, [(2-Benzothiophenesulfonyl-N-methylamino)-methyl]-phosphonic acid mono-(4-nitrophenyl) ester ammonium salt]	1300	2	–	logP (physchem): -0.091
O=[N+]([O-])c1ccc(OP(=O)(O)CN(Cc2ccccc2)S(=O)(=O)c2cc3ccccc3s2)cc1 [Compound 145, (2-Benzothiophenesulfonyl-N-benzylamino)-methyl]-phosphonic acid mono-(4-nitrophenyl) ester ammonium salt]	94	4	–	logP (physchem): 0.86
O=[N+]([O-])c1ccc(OP(=O)(O)CNS(=O)(=O)c2ccccc2)cc1 [compound 7]	4	–	–	–
O=[N+]([O-])c1ccc(OP(=O)(O)CNS(=O)(=O)c2ccc([N+](=O)[O-])cc2)cc1 [compound 12]	10	–	–	–
O=[N+]([O-])c1ccc(OP(=O)(O)CNS(=O)(=O)c2cccs2)cc1 [compound 15]	18	–	–	–
O=[N+]([O-])c1ccc(OP(=O)(O)CNS(=O)(=O)c2ccccc2Br)cc1 [compound 23]	14	–	–	–
O=[N+]([O-])c1ccc(OP(=O)(O)CNS(=O)(=O)c2ccccn2)cc1 [compound 31]	136	–	–	–
O=P(O)(CNS(=O)(=O)c1cccs1)Oc1cccc(Cl)c1 [compound 48]	189	–	–	–
O=P(O)(CNS(=O)(=O)c1ccsc1)Oc1cccnc1 [compound 55]	3600	–	–	–
O=[N+]([O-])c1ccc(OP(=O)(O)CNS(=O)(=O)c2cc3ccccc3s2)cc1 [compound 77]	0.4	–	–	–
CN(C)c1cccc(OP(=O)(O)CNS(=O)(=O)c2cccs2)c1 [compound 78]	3000	–	–	–
O=[N+]([O-])c1ccc(OP(=O)(O)NNS(=O)(=O)c2ccccc2)cc1 [compound 189]	–	–	–	IC50 [1, 11]: 62 µM
[(2-Benzothiophenesulfonyl-N-ethylamino)-methyl]-phosphonic acid mono-(4-nitrophenyl) ester ammonium salt [Compound 144]	–	–	–	IC50 [1, 11]: 463 µM; Log P [10]: −0.036
[(2-Benzothiophenesulfonyl-N-phenylethylamino)-methyl]-phosphonic acid mono-(4-nitrophenyl) ester ammonium salt [Compound 143]	–	–	–	IC50 [1, 11]: 133 µM; Log P [10]: 1.17
